Read-outs that look alike come from different tables or passages of the source.
Assays:
[1] = system: keratin 8 (K8) phosphorylation; assay: Western blotting of P-ERK1/2 and P-K8 in paraquat-treated retinal pigment epithelial cells; format: cell-based, human
Protocol: In the bar graph analyzed from the image of western blotting, the expression levels of P-ERK and P-K8 were calculated (FIG. 2B).
In the bar graph analyzed from the image of western blotting, the expression levels of P-ERK and P-K8 were calculated (FIG. 4A).
(§1) The same procedures as in Example 3 were performed, and 10 μM gefitinib was used in lieu of 50 nM trametinib.

[2] = system: APRE-19 cells and human-tissue-derived RPE cells; assay: P-K8 immunostaining: reorganization of K8 around the nucleus under paraquat oxidative stress; format: cell-based
Description: The ARPE-19 cells are cell lines that have been genetically engineered for infinite proliferation for experimental use. However, as the human-tissue-derived RPE cells were obtained by culturing RPE tissue isolated from the human eye without any genetic engineering they were used for experiments under conditions similar to those of human RPE.
Thereafter, P-K8 (green fluorescence) of the cells was immunostained (Abcam; ab32579). The nucleus was stained (Invitrogen; T3605) using TOPRO-3 (blue fluorescence) (FIG. 2C).
P-K8 (green fluorescence) of the cells was immunostained (FIG. 4B).
as §1

mouse retinal cells = assay: NaIO3-induced retinal degeneration in mouse, ZO-1 immunohistochemical analysis; format: in vivo; conditions: 20 mg/kg NaIO3 intravenously, 10 mg/kg PD98059, sacrificed 2 weeks after administration, FIG. 3C
Protocol: 7- to 9-week-old mouse retinal cells were subjected to immunohistochemical analysis (Abcam; ab59720) for a tight junction marker ZO-1 (green fluorescence). A saline-treated group was a control group with intravenous administration of 0.9% NaCl. A mouse group administered intravenously with 20 mg/kg of NaIO3 was selectively treated with 10 mg/kg of PD98059. Animal groups were sacrificed 2 weeks after intravenous administration. The fluorescence images were obtained through a confocal microscope (FIG. 3C).

ARPE-19 cells = assay: Cell motility using a Transwell insert; format: cell-based, human; conditions: 400 μM paraquat and 20 μM PD98059 for 36 hr, FIG. 3B
Protocol: Also, the cell motility was analyzed using a Transwell insert in ARPE-19 cells selectively treated with 400 μM paraquat and 20 μM PD98059 for 36 hr. As the migrated cells were stained with methylene blue it was confirmed by checking an image (FIG. 3B).

[3] = system: APRE-19 cells and human-tissue-derived RPE cells; assay: E-cadherin / vimentin immunostaining: epithelial-mesenchymal transition under paraquat oxidative stress; format: cell-based; conditions: for E-cadherin expression / vimentin filaments: APRE-19 and human-tissue-derived RPE cells
Protocol: E-cadherin (green fluorescence) and vimentin (red fluorescence) in the cells were immunostained (cell signaling; 7832s). The nucleus was stained using TOPRO-3 (blue fluorescence) (FIG. 3A).
Thereafter, E-cadherin (green fluorescence) and vimentin (red fluorescence) in the cells were immunostained. The nucleus was visualized using TOPRO-3 (blue fluorescence) (FIG. 4C).
as §1

[4] = APRE-19 cells, 400 μM paraquat 24 hr, then 20 μM PD98059 24 hr, FIG. 2B
[5] = 400 μM paraquat and 20 μM PD98059 for 48 hr, FIG. 3A
[6] = 400 μM paraquat and 10 μM gefitinib for 48 hr, FIG. 5C

Structure (SMILES) | K8 phosphorylation due to oxidative stress (P-ERK and P-K8 expression levels) [1, 4] | expression of LC3 I/II, the autophagy marker [1, 4] | effect of inhibiting K8 phosphorylation due to oxidative stress (P-K8 expression level) ([1]; APRE-19 cells, 400 μM paraquat 24 hr, then 20 μM PD98059 24 hr, compared to 10 μM SP600125, FIG. 2A) | reorganization of K8 around the nucleus ([2]; APRE-19 and human-tissue-derived RPE cells, 400 μM paraquat and 20 μM PD98059 for 36 hr, FIG. 2C) | degeneration of retinal cells (tight junction marker ZO-1) (mouse retinal cells) | cell motility (ARPE-19 cells) | epithelial-mesenchymal transition [3, 5] | E-cadherin expression [3, 5] | vimentin filaments [3, 5] | K8 phosphorylation due to oxidative stress (P-ERK and P-K8 expression levels) [1] | reorganization of K8 around the nucleus ([2]; APRE-19 cells, 400 μM paraquat and 10 μM gefitinib for 36 hr, FIG. 5B) | epithelial-mesenchymal transition [3, 6] | E-cadherin expression [3, 6] | vimentin filaments [3, 6]
COc1cccc(-c2cc(=O)c3ccccc3o2)c1N [PD98059] | inhibited K8 phosphorylation | not involved in the expression of LC3 I/II | superior | inhibited reorganization of K8 around the nucleus | restored the degeneration of retinal cells | reduced increased cell motility | reduce epithelial-mesenchymal transition | recovered E-cadherin lost | inhibited an increase in vimentin filaments | – | – | – | – | –
COc1cc2ncnc(Nc3ccc(F)c(Cl)c3)c2cc1OCCCN1CCOCC1 [gefitinib] | – | – | – | – | – | – | – | – | – | inhibited phosphorylation of K8 | inhibited reorganization of K8 around the nucleus | reduce epithelial-mesenchymal transition | recovered E-cadherin lost | inhibited the increase in vimentin filaments

From patent US10857154B2, “Pharmaceutical composition containing keratin 8 phosphorylation inhibitor for preventing or treating macular degeneration, and method for screening macular degeneration medicine” (priority 2016, dated 2020)
